Data published in US6855730B2, “3-methylidenyl-2-indolinone modulators of protein kinase” (Sugen, Inc., priority 1998, dated 2005).

The molecules below were run against T1, chimeric receptor containing the EGFR extracellular domain and intracellular HER2 kinase domain (Homo sapiens, UniProt P04626) (assay: EGF Receptor-HER2 chimeric receptor assay in whole cells (ELISA)). Settings: read-out: HER-2 kinase IC50.
T1 construct: fused on or other part: EGFR ectodomain + HER2 intracellular part, ATP-site indolinones: HER2's kinase
T1 sequence (P04626 720-1255 limits assumed, change not shown): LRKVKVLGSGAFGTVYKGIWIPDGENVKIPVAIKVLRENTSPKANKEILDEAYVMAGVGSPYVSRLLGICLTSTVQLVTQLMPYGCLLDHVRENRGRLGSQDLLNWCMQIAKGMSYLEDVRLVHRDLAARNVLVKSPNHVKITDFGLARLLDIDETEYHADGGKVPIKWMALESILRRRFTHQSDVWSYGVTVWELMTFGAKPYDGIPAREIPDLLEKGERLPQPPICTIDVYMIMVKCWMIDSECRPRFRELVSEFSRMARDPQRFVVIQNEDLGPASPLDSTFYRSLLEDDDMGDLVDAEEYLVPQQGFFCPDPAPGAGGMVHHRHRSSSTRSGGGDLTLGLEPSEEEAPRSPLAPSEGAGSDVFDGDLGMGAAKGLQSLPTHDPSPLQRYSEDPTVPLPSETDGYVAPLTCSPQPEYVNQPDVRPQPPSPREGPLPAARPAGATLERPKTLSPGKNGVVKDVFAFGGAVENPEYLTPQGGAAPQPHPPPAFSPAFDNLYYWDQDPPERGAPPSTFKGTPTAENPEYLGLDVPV
Type: cell-based
Procedure: EGF Receptor-HER2 Chimeric Receptor Assay In Whole Cells.
HER2 kinase activity in whole EGFR-NIH3T3 cells are measured as described below:
• a. […] 05-101 (UBI) (a monoclonal antibody recognizing an EGFR extracellular domain). • c. Anti-phosphotyrosine antibody (anti-Ptyr) (polyclonal) (see, Fendley, et al., supra). • d. Detection antibody: Goat anti-rabbit IgG horseradish peroxidase conjugate, TAGO, Inc., Burlingame, Calif. • e. TBST buffer:
• h. Stock reagents of:
Pre-coat ELISA Plate • 1. […] Coated plates are good for up to 10 days when stored at 4° C. • 2. On day of use, remove coating buffer and replace with 100 μl blocking buffer (5% Carnation Instant Non-Fat Dry Milk in PBS). Incubate the plate, shaking, at room temperature (about 23° C. to 25° C.) for 30 minutes. Just prior to use, remove blocking buffer and wash plate 4 times with TBST buffer.
Seeding Cells • 1. An NIH3T3 cell line overexpressing a chimeric receptor containing the EGFR extracellular domain and intracellular HER2 kinase domain can be used for this assay. • 2. Choose dishes having 80-90% confluence for the experiment. Trypsinize cells and stop reaction by adding 10% fetal bovine serum. Suspend cells in DMEM medium (10% CS DMEM medium) and centrifuge once at 1500 rpm, at room temperature for 5 minutes. • 3. Resuspend cells in seeding medium (DMEM, 0.5% bovine serum), and count the cells using trypan blue. Viability above 90% is acceptable. Seed cells in DMEM medium (0.5% bovine serum) at a density of 10,000 cells per well, 100 μl per well, in a 96 well microtiter plate. Incubate seeded cells in 5% CO2. at 37° C. for about 40 hours.
Assay Procedures • 1. Check seeded cells for contamination using an inverted microscope. Dilute drug stock (10 mg/ml in DMSO) 1:10 in DMEM medium, then transfer 5 μl to a […] well for a final drug dilution of 1:200 and a final DMSO concentration of 1%. Control wells receive DMSO alone. Incubate in 5% CO2 at 37° C. for two hours. • 2. Prepare EGF ligand: dilute stock EGF in DMEM so that upon transfer of 10 μl dilute EGF (1:12 dilution), 100 nM final concentration is attained. • 3. Prepare fresh HNTG* sufficient for 100 μl per well, and place on ice.
• 4. After 120 minutes incubation with drug, add prepared […] ligand to cells, 10 μl per well, to a final concentration of 100 nM. Control wells receive DMEM alone. Incubate with shaking, at room temperature, for 5 minutes. • 5. Remove drug, EGF, and DMEM. Wash cells twice with PBS. Transfer HNTG* to cells, 100 μl per well. Place on ice for 5 minutes. Meanwhile, remove blocking buffer from other ELISA plate and wash with TBST as described above. • 6. With a pipette tip securely fitted to a micropipettor, scrape cells from plate and homogenize cell material by repeatedly aspirating and dispensing the HNTG* lysis buffer. Transfer lysate to a coated, blocked, and washed ELISA plate. Incubate shaking at room temperature for one hour. • 7. Remove lysate and wash 4 times with TBST. Transfer freshly diluted anti-Ptyr antibody to ELISA plate at 100 μl per well. Incubate shaking at room temperature for 30 minutes in the presence of the anti-Ptyr antiserum (1:3000 dilution in TBST). • 8. Remove the anti-Ptyr antibody and wash 4 times with TBST. Transfer the freshly diluted TAGO anti-rabbit IgG antibody to the ELISA plate at 100 μl per well. Incubate shaking at room temperature for 30 minutes (anti-rabbit IgG antibody: 1:3000 dilution in TBST). • 9. Remove TAGO detection antibody and wash 4 times with TBST. Transfer freshly prepared ABTS/H2O2 solution to ELISA plate, 100 μl per well. Incubate shaking at room temperature for 20 minutes. (ABTS/H2O2 solution: 1.0 μl 30% H2O2 in 10 ml ABTS stock). • 10. Stop reaction by adding 50 μl 5N H2SO4 (optional), and determine O.D. at 410 nm. • 11. The maximal phosphotyrosine signal is determined by subtracting the value of the negative controls from the positive controls. […]
Work on `COc1ccc(C=C2C(=O)Nc3cc(NC(C)=O)ccc32)cc1-c1cccc(NC(C)=O)c1` (mixture of isomers) [Example 63, N-[3-(3′-Acetylamino-6-methoxybiphenyl-3-ylmethylene)-2-oxo-2,3-dihydro-1H-indol-6-yl]-acetamide] yielded an IC50 of over 100 µM.
`CC1(C)CCc2cc(C=C3C(=O)Nc4ccc(Br)cc43)ccc2O1` (racemic) [Example 34, 5-Bromo-3-(2,2-dimethylchroman-6-ylmethylene)-1,3-dihydroindol-2-one] showed an IC50 of over 100 µM.
Molecule `CNS(=O)(=O)c1ccc2c(c1)C(=Cc1[nH]c3ccccc3c1C)C(=O)N2` (racemic) [Example 154, 3-(3-Methyl-1H-indol-2-ylmethylene)-2-oxo-2,3-dihydro-1H-indole-5-sulfonic acid methylamide] has an IC50 of over 100 µM.
`COc1c(C(C)C)cc(/C=C2/C(=O)Nc3cc(NC(C)=O)ccc32)cc1C(C)C` [Example 3, N-[3-(3,5-Diisopropyl-4-methoxybenzylidene)-2-oxo-2,3-dihydro-1H-indol-6-yl]-acetamide] was tested, and the IC50 was 6.4 µM.
For `COc1c(C(C)C)cc(/C=C2/C(=O)Nc3cc(O)ccc32)cc1C(C)C` [Example 4, 3-(3,5-Diisopropyl-4-methoxybenzylidene)-6-hydroxy-1,3-dihydroindol-2-one], the IC50 was 5.8 µM.
`COc1c(C(C)C)cc(/C=C2/C(=O)Nc3ccc(C(C)=O)cc32)cc1C(C)C` [Example 5, 5-Acetyl-3-(3,5-diisopropyl-4-methoxybenzylidene)-1,3dihydroindol-2-one] was tested, and the IC50 was 6.5 µM.
`COC(=O)c1ccc2c(c1)/C(=C\c1cc(C(C)C)c(OC)c(C(C)C)c1)C(=O)N2` [Example 6, 3-(3,5-Diisopropyl-4-methoxybenzylidene)-2-oxo-2,3-dihydro-1H-indole-5-carboxylic acid methyl ester] showed an IC50 of 15.3 µM.
In the case of `COc1ccc(/C=C2/C(=O)Nc3ccccc32)cc1C(C)C` [Example 7, 3-(3-Isopropyl-4-methoxybenzylidene)-1,3-dihydroindol-2-one], the IC50 is reported as over 100 µM.
With `COc1cc(C)c(C=C2C(=O)Nc3ccccc32)cc1C(C)C` [Example 8, 3-(5-Isopropyl-4-methoxy-2-methylbenzylidene)-1,3-dihydroindol-2-one] the IC50 was 8.36 µM.
With `COc1cc(C)c(C=C2C(=O)Nc3ccc(Cl)cc32)cc1C(C)C` [Example 9, 5-Chloro-3-(5-isopropyl-4-methoxy-2-methylbenzylidene)-1,3-dihydroindol-2-one] the IC50 was over 100 µM.
`COc1ccc(/C=C2/C(=O)Nc3ccccc32)cc1C1CCCC1` [Example 10, 3-(3-Cyclopentyl-4-methoxybenzylidene)-1,3-dihydroindol-2-one] was tested, and the IC50 was 45.8 µM.
`COc1ccc(/C=C2/C(=O)Nc3ccc(F)cc32)cc1C1CCCC1` [Example 11, 3-(3-Cyclopentyl-4-methoxybenzylidene)-5-fluoro-1,3-dihydroindol-2-one] showed an IC50 of 57.3 µM.
For `COc1ccc(/C=C2/C(=O)Nc3ccccc32)cc1C1CCCCC1` [Example 12, 3-(3-Cyclohexyl-4-methoxybenzylidene)-1,3-dihydroindol-2-one], the IC50 was over 100 µM.
With `COc1ccc(/C=C2/C(=O)Nc3ccc(Br)cc32)cc1-c1ccccc1` [Example 13, 5-Bromo-3-(6-methoxybiphenyl-3-ylmethylene)-1,3-dihydroindol-2-one] the IC50 was over 100 µM.
With `O=C1Nc2ccc(Cl)cc2/C1=C\c1ccc2c(c1)CCO2` [Example 14, 5-Chloro-3-(2,3-dihydro-benzofuran-5-ylmethylene)-1,3-dihydroindol-2-one] the IC50 was 22.7 µM.
`CC1(C)CCc2cc(/C=C3/C(=O)Nc4ccc(Cl)cc43)ccc2O1` [Example 15, 5-Chloro-3-(2,2-dimethyl-chroman-6-ylmethylene)-1,3-dihydroindol-2-one] was tested, and the IC50 was 19 µM.
For `CC(=O)Nc1ccc2c(c1)NC(=O)/C2=C/c1ccc(OCCN2CCOCC2)c(C2CCCCC2)c1` [Example 16, N-{3-[3-Cyclohexyl-4-(2-morpholin-4-ylethoxy)-benzylidene]-2-oxo-2,3-dihydro-1H-indol-6-yl}-acetamide], the IC50 was 9.9 µM.
Molecule `COc1ccc2c(c1)/C(=C\c1cc(C(C)C)c(OC)c(C(C)C)c1)C(=O)N2` [Example 17, 3-(3,5-Diisopropyl-4-methoxybenzylidene)-5-methoxy-1,3-dihydroindol-2-one] has an IC50 of 7.8 µM.
In the case of `COc1ccc(/C=C2/C(=O)Nc3cc(NC(C)=O)ccc32)cc1-c1ccsc1` [Example 18, N-[3-(4-Methoxy-3-thiophene-3-ylbenzylidene)-2-oxo-2,3-dihydro-1H-indol-6-yl]-acetamide], the IC50 is reported as 8.4 µM.
`COc1c(C(C)C)cc(/C=C2/C(=O)Nc3ccc(C)cc32)cc1C(C)C` [Example 19, 3-(3,5-Diisopropyl-4-methoxybenzylidene)-5-methyl-1,3-dihydroindol-2-one] showed an IC50 of 9.2 µM.
With `COc1c(C(C)C)cc(/C=C2/C(=O)Nc3ccc(N)cc32)cc1C(C)C` [Example 20, 5-Amino-3-(3,5-diisopropyl-4-methoxy-benzylidene)-1,3-dihydroindol-2-one] the IC50 was 38.6 µM.
With `COc1c(C)cc(/C=C2/C(=O)Nc3ccc(Cl)cc32)cc1C` [Example 21, 5-Chloro-3-(4-methoxy-3,5-dimethylbenzylidene)-1,3-dihydroindol-2-one] the IC50 was 11.8 µM.
Molecule `COc1c(C(C)C)cc(/C=C2/C(=O)Nc3cc(F)ccc32)cc1C(C)C` [Example 22, 3-(3,5-Diisopropyl-4-methoxybenzylidene)-6-fluoro-1,3-dihydroindol-2-one] has an IC50 of 12.4 µM.
`CC1(C)CCc2cc(/C=C3/C(=O)Nc4ccc(F)cc43)ccc2O1` [Example 23, 3-(2,2-Dimethylchroman-6-ylmethylene)-5-fluoro-1,3-dihydroindol-2-one] gave an IC50 of 33.2 µM.
For `CC(C)c1cc(/C=C2/C(=O)Nc3ccc(Cl)cc32)cc(C(C)C)c1OCCN1CCOCC1` [Example 24, 5-chloro-3-[3,5-diisopropyl-4-(2-morpholin-4-ylethoxy)-benzylidene]-1,3-dihydroindol-2-one], the IC50 was 13.6 µM.
`COc1ccc(/C=C2/C(=O)Nc3ccc(CCN4CCOCC4)cc32)cc1-c1ccsc1` [Example 26, 3-(4-Methoxy-3-thiophen-3-ylbenzylidene)-5-(2-morpholin-4-yl-ethyl)-1,3-dihydroindol-2-one] showed an IC50 of 15.3 µM.
`COc1cc(C)c(C=C2C(=O)Nc3cc(NC(C)=O)ccc32)cc1C(C)C` [Example 27, N-[3-(5-Isopropyl-4-methoxy-2-methyl-benzylidene)-2-oxo-2,3-dihydro-1H-indol-6-yl]-acetamide] gave an IC50 of 15.8 µM.
Molecule `CCc1ccc2c(c1)/C(=C\c1cc(C(C)C)c(OC)c(C(C)C)c1)C(=O)N2` [Example 28, 3-(3,5-Diisopropyl-4-methoxbenzylidene)-5-ethyl-1,3-dihydroindol-2-one] has an IC50 of 16.9 µM.
`COc1ccc(C=C2C(=O)Nc3ccccc32)cc1-c1cccc(NC(C)=O)c1` [Example 29, N-[2′-Methoxy-5′-(2-oxo-1,2-dihydroindol-3-ylidenemethyl)-biphenyl-3-yl]-acetamide] gave an IC50 of 17.1 µM.
`COc1cc(C)c(/C=C2/C(=O)Nc3ccc(F)cc32)cc1C(C)C` [Example 30, 5-Fluoro-3-(5-isopropyl-4-methoxy-2-methyl-benzylidene)-1,3-dihydroindol-2-one] gave an IC50 of 28 µM.
`COc1ccc(/C=C2/C(=O)Nc3cc(NC(C)=O)ccc32)cc1-c1cccs1` [Example 31, N-[3-(4-Methoxy-3-thiophen-2-ylbenzylidene)-2-oxo-2,3-dihydro-1H-indol-6-yl]-acetamide] was tested, and the IC50 was 12.9 µM.
